According to US20230219946A1, “PYRIMIDIN-4(3H)-ONE HETEROCYCLIC COMPOUND, PREPARATION METHOD THEREOF, AND PHARMACEUTICAL USE THEREOF” (Beijing Innocare Pharma Tech Co., Ltd., priority 2020, published 2023):
Where a name gives a salt, the structure may show the parent alone.

Legend:
[1] = test system: human non-small cell lung cancer cell line NCI-H358; assay: NCI-H358 cell proliferation inhibition (luminescent cell viability assay, CTG); type: cell-based; settings: 120 h, NCI-H358 cells, 5 days, CellTiter-Glo
Protocol: Determination of NCI-H358 cell proliferation inhibition
The effect of the compound of the present invention on proliferation of human non-small cell lung cancer cell line NCI-H358 is evaluated by luminescent cell viability assay.
(§1) The experimental method is outlined as follows:
The compound was dissolved in DMSO (Sigma, Cat. No. D5879) and diluted to 5 mM. The resulting solution was serially diluted 4-fold with DMSO to a minimum concentration of […], and each concentration point was diluted 50-fold with RPMI 1640 Medium (Thermo Fisher Scientific, Cat. No. 11995073). When the IC50 value of the compound was low, the initial concentration of the compound was further reduced.
NCI-H358 cells (ATCC, Cat. No. CRL-5807) were cultured in RPMI 1640 Complete Medium [RPMI 1640 Medium was supplemented with 10% FBS (GBICO, Cat. No. 10099-141) and 100 units/mL Penicillin-Streptomycin (Thermo Fisher Scientific, Cat. No. 15140122)]. The cells (15,000 cells/mL) were seeded in 90 μL of Complete Medium on a 96-well plate. After culturing overnight, 10 μL of compound solution was added to each well and cultured at 37° C. in a 5% CO2 incubator for 5 days. According to the instruction from the CellTilter-Glo (CTG) kit (Promega, Cat. No. G7572), the cell culture plate was removed from incubator and equilibrated to room temperature. The cells were lysed fully with 50 μL of CTG reagent and placed at room temperature for 10 min. A luminescence signal was read by the microplate reader (EnVision, Perkin Elmer). […] An inhibition curve of the compound was plotted by XLfit software and the inhibitory IC50 was calculated.

hERG potassium channel = hERG potassium channel (Homo sapiens, UniProt Q12809); settings: 3 μM test compound, whole-cell patch clamp, HEK293-hERG, room temperature
Protocol: All electrophysiological experiments were conducted at room temperature.

[2] = target: T1, Recombinant human SHP2 full-length protein (Homo sapiens, UniProt Q06124); assay: SHP2 activity inhibition measurement (fluorescence detection, surrogate substrate DiFMUP); type: biochemical; settings: recombinant human SHP2 full-length protein activated with diphosphopeptide
T1 construct: Recombinant human SHP2 full-length protein
T1 sequence (Q06124 1-593): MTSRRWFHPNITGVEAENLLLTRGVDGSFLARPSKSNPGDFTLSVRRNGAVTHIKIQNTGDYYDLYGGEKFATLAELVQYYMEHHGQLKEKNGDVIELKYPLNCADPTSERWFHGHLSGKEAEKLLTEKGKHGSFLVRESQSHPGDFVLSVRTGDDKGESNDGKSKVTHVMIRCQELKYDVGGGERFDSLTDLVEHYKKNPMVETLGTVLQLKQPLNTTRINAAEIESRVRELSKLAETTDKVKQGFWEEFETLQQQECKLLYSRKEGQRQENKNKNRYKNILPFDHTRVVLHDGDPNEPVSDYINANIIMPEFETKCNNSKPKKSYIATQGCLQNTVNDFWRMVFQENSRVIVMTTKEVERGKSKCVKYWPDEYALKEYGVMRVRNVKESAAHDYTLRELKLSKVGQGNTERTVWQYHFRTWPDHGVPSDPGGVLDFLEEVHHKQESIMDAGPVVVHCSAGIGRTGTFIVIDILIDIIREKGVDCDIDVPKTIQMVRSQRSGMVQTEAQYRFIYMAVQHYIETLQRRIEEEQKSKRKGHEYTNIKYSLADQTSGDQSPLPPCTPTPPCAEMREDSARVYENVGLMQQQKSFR
Protocol: SHP2 activity inhibition measurement
The effect of the compound of the present invention on SHP2 activity is evaluated by rapid fluorescence detection method using the surrogate substrate DiFMUP.
as §1
Recombinant human SHP2 full-length protein was expressed and purified by the protein purification and identification platform of Tsinghua University; diphosphopeptide (H2N-LN(pY)IDLDLV-(dPEG8)LST(pY)ASINFQK-amide) was synthesized by Nanjing GenScript Biotechnology Co., Ltd.; surrogate substrate DiFMUP was purchased from Thermo Fisher Scientific (Cat. No. D6567); reaction buffer contained the following components: 60 mM HEPES (pH 7.2), 75 mM NaCl, 75 mM KCl, 1 mM EDTA, 0.05% TWEEN 20, and 5 mM DTT.
The compound was dissolved in DMSO (Sigma, Cat. No. D5879) and diluted to 100 μM. The resulting solution was serially diluted 4-fold with DMSO to a minimum concentration of 6.1 nM, and each concentration point was diluted 25-fold with the reaction buffer.
10 μL of compound solution and 10 μL of 0.25 nM SHP2 protein solution were added to a 384-well microplate (Corning, Cat. No. 3575), mixed well, and incubated at room temperature for 30 min. 10 μL of 0.5 μM diphosphopeptide (dissolved in the reaction buffer) was added, mixed well, and incubated at room temperature for 30 to 60 min. Subsequently, 10 μL of 60 μM DiFMUP solution (dissolved in the reaction buffer) was added, mixed well, and let stand at room temperature. After 30 min, fluorescence signals were measured at 340 nm (excitation wavelength)/450 nm (emission wavelength) using a microplate reader (EnSpire, Perkin Elmer). The fluorescence intensity value was positively correlated with the degree of dephosphorylation of the substrate, thereby reflecting the catalytic activity of SHP2. […] An inhibition curve of the compound was plotted by XLfit software and the inhibitory IC50 was calculated.

Sequence of hERG potassium channel (Q12809 whole entry): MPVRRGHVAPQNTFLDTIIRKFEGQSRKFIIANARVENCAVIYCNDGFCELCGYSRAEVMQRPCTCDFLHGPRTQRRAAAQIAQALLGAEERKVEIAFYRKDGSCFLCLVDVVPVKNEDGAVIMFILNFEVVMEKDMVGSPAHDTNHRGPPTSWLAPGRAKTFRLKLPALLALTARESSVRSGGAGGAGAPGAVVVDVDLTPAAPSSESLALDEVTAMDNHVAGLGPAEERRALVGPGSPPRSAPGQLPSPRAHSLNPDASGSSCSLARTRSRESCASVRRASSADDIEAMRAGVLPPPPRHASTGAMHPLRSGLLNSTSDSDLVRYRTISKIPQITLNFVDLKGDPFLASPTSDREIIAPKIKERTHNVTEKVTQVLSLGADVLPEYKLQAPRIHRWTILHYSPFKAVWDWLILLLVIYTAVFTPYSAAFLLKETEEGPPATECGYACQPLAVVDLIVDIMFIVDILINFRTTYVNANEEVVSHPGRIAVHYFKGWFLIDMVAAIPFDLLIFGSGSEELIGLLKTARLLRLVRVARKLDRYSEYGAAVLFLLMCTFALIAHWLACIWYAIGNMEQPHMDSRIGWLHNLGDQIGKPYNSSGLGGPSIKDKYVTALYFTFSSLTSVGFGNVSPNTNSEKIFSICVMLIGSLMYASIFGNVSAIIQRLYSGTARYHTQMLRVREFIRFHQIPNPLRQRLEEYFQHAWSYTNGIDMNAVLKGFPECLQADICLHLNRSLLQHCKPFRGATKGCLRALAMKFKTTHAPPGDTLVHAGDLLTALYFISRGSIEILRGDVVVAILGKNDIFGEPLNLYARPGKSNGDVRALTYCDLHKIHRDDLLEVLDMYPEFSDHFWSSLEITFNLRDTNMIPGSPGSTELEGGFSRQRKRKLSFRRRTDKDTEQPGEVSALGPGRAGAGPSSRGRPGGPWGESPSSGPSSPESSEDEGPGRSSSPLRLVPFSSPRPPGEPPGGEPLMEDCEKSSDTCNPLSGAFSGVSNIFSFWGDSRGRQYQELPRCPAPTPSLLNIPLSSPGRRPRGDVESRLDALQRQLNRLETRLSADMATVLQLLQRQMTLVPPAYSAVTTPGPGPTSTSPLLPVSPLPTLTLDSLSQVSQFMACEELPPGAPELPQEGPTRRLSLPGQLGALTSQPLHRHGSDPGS

Cn1cc2c(Cl)c(Sc3cnc(N4CCC5(CCC[C@H]5N)CC4)n(C)c3=O)ccc2n1 [Compound 7, (R)-2-(1-amino-8-azaspiro[4.5]decan-8-yl)-5-((4-chloro-2-methyl-2H-indazole-5-yl)thio)-3-methylpyrimidin-4(3H)-one hydrochloride] was tested, and the IC50 [1] was 575 nM, the “hERG current inhibition percentage at 3 μM solubility (n = 2)” value (hERG potassium channel) was 10% and the IC50 [2] was 12 nM.
